16 compounds from patent US9006487B2, “Amine-containing lipids and uses thereof” (Massachusetts Institute of Technology, priority 2005, dated 2015) can be followed below.

In this experiment the test system is cos-7 cells. Description: DNA transfection: luciferase expression relative to Lipofectamine 2000. In kind it is cell-based. As to conditions: for Luciferase expression as a percentage of that achieved using Lipofectamine 2000: 300 ng Luciferase DNA per well; for Luciferase expression as a percentage of that achieved using Lipofectamine 2000 / % of the luciferase activity obtained from the use of Lipofectamine 2000: luciferase assay after 48 hours; for % of the luciferase activity obtained from the use of Lipofectamine 2000: 300 ng DNA per well; for luciferase expression (second part of table, values relative to LIPO2000): 300 ng of DNA per well. The procedure, abridged: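 cos-7 cells were transfected with 300 ng/well luciferase DNA complexed with lipid at ratios from 2.5 to 25 w/w. Bright-Glo luminescence was read after 48 hours and converted to ng luciferase by standard curve. Data are percent of the Lipofectamine 2000 control (2.5 w/w).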

For `CCCCCCCCCCCCCCCOC(=O)CCN(CCCCO)CCC(=O)OCCCCCCCCCCCCCCC` [LG28], the “Luciferase expression as a percentage of that achieved using Lipofectamine 2000” value (“Luciferase expression as a percentage” below) is 0.2% (lipid/DNA 2.5 w/w); 0.5% (lipid/DNA 5 w/w); 0.2% (lipid/DNA 10 w/w); 0.2% (lipid/DNA 15 w/w); 0.1% (lipid/DNA 20 w/w); 0.2% (lipid/DNA 25 w/w).
As for `CCCCCCCCCCOC(=O)CCN(CCC(=O)OCCCCCCCCCC)CCc1ccc(OC)c(OC)c1` [LB17], the “Luciferase expression as a percentage” value came out at 0.1% (lipid/DNA 2.5 w/w); 0.1% (lipid/DNA 5 w/w); 0.1% (lipid/DNA 10 w/w); 0.1% (lipid/DNA 15 w/w); 0.1% (lipid/DNA 20 w/w); 0.1% (lipid/DNA 25 w/w).
Take `CCCCCCCCCCCCCCOC(=O)CCN(CCCOC)CCC(=O)OCCCCCCCCCCCCCC` [LF1]: the “Luciferase expression as a percentage” value (lipid/DNA 2.5 w/w) was 0.1%; the “Luciferase expression as a percentage” value (lipid/DNA 5 w/w) is 0.1%; the “Luciferase expression as a percentage” value (lipid/DNA 10 w/w) is on record as 0.0%; the “Luciferase expression as a percentage” value (lipid/DNA 15 w/w) turned out to be 0.0%; the “Luciferase expression as a percentage” value (lipid/DNA 20 w/w) was 0.1%; the “Luciferase expression as a percentage” value (lipid/DNA 25 w/w) is recorded as 0.1%.
In the case of `CCCCCCCCCCCCCCCOC(=O)CCN(CCC(=O)OCCCCCCCCCCCCCCC)CC1CCCO1` (stereo not shown) [LG15], the “Luciferase expression as a percentage” value runs as follows: (lipid/DNA 2.5 w/w) 0.7%; (lipid/DNA 5 w/w) 0.8%; (lipid/DNA 10 w/w) 0.5%; (lipid/DNA 15 w/w) 0.6%; (lipid/DNA 20 w/w) 0.7%; (lipid/DNA 25 w/w) 0.8%.
As to `CCCCCCCCCCCCOC(=O)CCN1CCCN(CCC(=O)OCCCCCCCCCCCC)CC1` [LD70], the “Luciferase expression as a percentage” value (lipid/DNA 2.5 w/w) was 0.1%; the “Luciferase expression as a percentage” value (lipid/DNA 5 w/w) was 0.1%; the “Luciferase expression as a percentage” value (lipid/DNA 10 w/w) is reported as 0.6%; the “Luciferase expression as a percentage” value (lipid/DNA 15 w/w) was 0.6%; the “Luciferase expression as a percentage” value (lipid/DNA 20 w/w) is recorded as 0.6%; the “Luciferase expression as a percentage” value (lipid/DNA 25 w/w) is 0.6%.
For `CCCCCCCCCCOC(=O)CCN(CCCCCCO)CCC(=O)OCCCCCCCCCC` [LB36], the “Luciferase expression as a percentage” value reads like this: (lipid/DNA 2.5 w/w) 0.1%; (lipid/DNA 5 w/w) 0.1%; (lipid/DNA 10 w/w) 0.1%; (lipid/DNA 15 w/w) 0.1%; (lipid/DNA 20 w/w) 0.1%; (lipid/DNA 25 w/w) 0.1%.
Take `CCCCCCCCCCCCCCCOC(=O)CC[N+](C)(CCC[N+](C)(CCO)CCO)CCC(=O)OCCCCCCCCCCCCCCC` [QG87]: the “% of the luciferase activity obtained from the use of Lipofectamine 2000” value is, setting by setting: (2.5 w/w lipid to DNA) 89.0%; (5 w/w lipid to DNA) 94.0%; (10 w/w lipid to DNA) 42.4%; (15 w/w lipid to DNA) 64.7%; (20 w/w lipid to DNA) 62.1%; (25 w/w lipid to DNA) 44.1%. For the same compound, the “luciferase expression (second part of table, values relative to LIPO2000)” value is, setting by setting: (lipid/DNA 2.5 w/w) 89.0; (lipid/DNA 5 w/w) 94.0; (lipid/DNA 10 w/w) 42.4; (lipid/DNA 15 w/w) 64.7; (lipid/DNA 20 w/w) 62.1; (lipid/DNA 25 w/w) 44.1.
For `CCCCCCCCCCCCCCCOC(=O)CCN(CCC(=O)OCCCCCCCCCCCCCCC)CC(O)CO` (stereo not shown) [LG24], the “Luciferase expression as a percentage” value reads like this: (lipid/DNA 2.5 w/w) 2.0%; (lipid/DNA 5 w/w) 3.3%; (lipid/DNA 10 w/w) 4.8%; (lipid/DNA 15 w/w) 11.2%; (lipid/DNA 20 w/w) 16.4%; (lipid/DNA 25 w/w) 32.5%.
Take `CCCCCCCCCCCCCCCOC(=O)CCN(CCC(=O)OCCCCCCCCCCCCCCC)C(C)(CO)CO` [LG26]: the “Luciferase expression as a percentage” value reads like this: (lipid/DNA 2.5 w/w) 0.6%; (lipid/DNA 5 w/w) 13.0%; (lipid/DNA 10 w/w) 1.9%; (lipid/DNA 15 w/w) 0.5%; (lipid/DNA 20 w/w) 0.3%; (lipid/DNA 25 w/w) 0.4%.
For `CCCCCCCCCCCCCCCOC(=O)CCN(CCOCC)CCC(=O)OCCCCCCCCCCCCCCC` [LG11], the “Luciferase expression as a percentage” value by setting is: (lipid/DNA 2.5 w/w) 0.0%; (lipid/DNA 5 w/w) 0.0%; (lipid/DNA 10 w/w) 0.0%; (lipid/DNA 15 w/w) 0.0%; (lipid/DNA 20 w/w) 0.0%; (lipid/DNA 25 w/w) 0.0%.
On to `CCCCCCCCCCCCCCOC(=O)CCN(CCC(=O)OCCCCCCCCCCCCCC)CCN(CC)CC` [LF75], for which the “Luciferase expression as a percentage” value reads like this: (lipid/DNA 2.5 w/w) 0.7%; (lipid/DNA 5 w/w) 1.0%; (lipid/DNA 10 w/w) 0.7%; (lipid/DNA 15 w/w) 1.9%; (lipid/DNA 20 w/w) 1.7%; (lipid/DNA 25 w/w) 1.7%.
For `CCCCCCCCCCCCCCCCCCOC(=O)CCN(CCC(=O)OCCCCCCCCCCCCCCCCCC)CC1CCCO1` (stereo not shown) [LH15], the “Luciferase expression as a percentage” value (lipid/DNA 2.5 w/w) is 0.0%; the “Luciferase expression as a percentage” value (lipid/DNA 5 w/w) was found to be 0.0%; the “Luciferase expression as a percentage” value (lipid/DNA 10 w/w) is listed as 0.0%; the “Luciferase expression as a percentage” value (lipid/DNA 15 w/w) was determined as 0.0%; the “Luciferase expression as a percentage” value (lipid/DNA 20 w/w) came to 0.0%; the “Luciferase expression as a percentage” value (lipid/DNA 25 w/w) turned out to be 0.0%.
Regarding `CCCCCCCCCCOC(=O)CCN(CCC(=O)OCCCCCCCCCC)CC1CCCO1` (stereo not shown) [LB15], the “Luciferase expression as a percentage” value by setting is: (lipid/DNA 2.5 w/w) 0.1%; (lipid/DNA 5 w/w) 0.1%; (lipid/DNA 10 w/w) 0.1%; (lipid/DNA 15 w/w) 0.1%; (lipid/DNA 20 w/w) 0.1%; (lipid/DNA 25 w/w) 0.1%.
Take `CCCCCCCCCCCCCCCCCCOC(=O)CCN(CCC(=O)OCCCCCCCCCCCCCCCCCC)C[C@H](C)O` [LH22]: the “Luciferase expression as a percentage” value worked out at 0.0% (lipid/DNA 2.5 w/w); 0.0% (lipid/DNA 5 w/w); 0.0% (lipid/DNA 10 w/w); 0.0% (lipid/DNA 15 w/w); 0.0% (lipid/DNA 20 w/w); 0.0% (lipid/DNA 25 w/w).
Take `CCCCCCCCCCCCOC(=O)CCN(CCCN(CCO)CCO)CCC(=O)OCCCCCCCCCCCC` [LD87]: the “Luciferase expression as a percentage” value reads like this: (lipid/DNA 10 w/w) 53.9%; (lipid/DNA 15 w/w) 43.3%. Moreover, the “luciferase expression (second part of table, values relative to LIPO2000)” value reads like this: (lipid/DNA 10 w/w) 53.9; (lipid/DNA 15 w/w) 43.3.
Regarding `CCCCCCCCCCCCOC(=O)CCN(CCC(=O)OCCCCCCCCCCCC)CCN1CCCCC1` [LD82], the “Luciferase expression as a percentage” value by setting is: (lipid/DNA 2.5 w/w) 0.1%; (lipid/DNA 5 w/w) 0.1%; (lipid/DNA 10 w/w) 0.2%; (lipid/DNA 15 w/w) 0.3%; (lipid/DNA 20 w/w) 0.4%; (lipid/DNA 25 w/w) 0.7%.
